This note sets out measurements from US8592423B2, “Inhibitors of PDE10” (Bristol-Myers Squibb Company, priority 2011, dated 2013).

Chain of PDE10 (Q9Y233 whole entry): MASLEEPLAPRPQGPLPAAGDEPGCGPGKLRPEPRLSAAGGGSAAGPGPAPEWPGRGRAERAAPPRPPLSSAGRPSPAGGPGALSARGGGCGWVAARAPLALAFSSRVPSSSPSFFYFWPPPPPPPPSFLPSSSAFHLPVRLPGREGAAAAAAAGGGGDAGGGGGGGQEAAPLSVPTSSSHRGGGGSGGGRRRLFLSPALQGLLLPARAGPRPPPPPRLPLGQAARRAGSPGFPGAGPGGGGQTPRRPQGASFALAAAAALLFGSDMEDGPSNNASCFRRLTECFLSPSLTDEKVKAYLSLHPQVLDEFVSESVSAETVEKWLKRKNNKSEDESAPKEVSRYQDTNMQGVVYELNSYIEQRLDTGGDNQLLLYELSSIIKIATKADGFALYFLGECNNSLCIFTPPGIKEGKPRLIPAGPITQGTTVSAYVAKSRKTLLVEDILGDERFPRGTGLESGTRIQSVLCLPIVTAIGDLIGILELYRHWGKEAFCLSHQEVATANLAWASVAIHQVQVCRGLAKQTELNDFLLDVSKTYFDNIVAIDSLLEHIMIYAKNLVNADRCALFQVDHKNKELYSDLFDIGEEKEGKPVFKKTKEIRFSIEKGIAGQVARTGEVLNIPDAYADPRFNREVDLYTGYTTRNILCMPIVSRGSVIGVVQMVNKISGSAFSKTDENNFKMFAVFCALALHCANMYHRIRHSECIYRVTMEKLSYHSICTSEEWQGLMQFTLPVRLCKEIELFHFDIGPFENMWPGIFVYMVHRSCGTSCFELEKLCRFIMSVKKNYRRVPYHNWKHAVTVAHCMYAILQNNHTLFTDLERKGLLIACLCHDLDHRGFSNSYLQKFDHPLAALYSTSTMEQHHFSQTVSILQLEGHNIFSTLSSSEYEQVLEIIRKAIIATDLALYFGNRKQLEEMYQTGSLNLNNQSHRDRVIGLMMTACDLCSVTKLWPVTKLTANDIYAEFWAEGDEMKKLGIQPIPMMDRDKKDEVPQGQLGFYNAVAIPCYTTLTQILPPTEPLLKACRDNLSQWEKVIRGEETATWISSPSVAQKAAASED

The target in the first assay is PDE10 (Homo sapiens (Human), UniProt Q9Y233). Kind of assay: LE_PDE10A inhibition assay (SPA, cAMP hydrolysis). In kind it is biochemical. The following applies: 3H-cAMP at Km 25 nM, read-out: IC50. As to the method: LE_PDE10A Inhibition Assay:
The PDE10 inhibition assay in 384-well plates was conducted to identify substances for the inhibition of cyclic nucleotide hydrolysis by the PDE10 enzyme. […] PDE10 activity was measured using Scintillation Proximity Assay (SPA)-based methods. PDE10 catalyses the hydrolysis of the intracellular messenger adenosine […] (cAMP) to the non-cyclic adenosine 5′-monophosphate (AMP). The SPA assay was based upon the selective interaction of the tritiated product with yttrium oxide LEADseeker beads.
The assay buffer contained 25 mM HEPES pH 7.4, 2.5 mM Magnesium Chloride and 0.1% BSA. […] The reaction was terminated by adding 6 μL of 5 mg/mL of yttrium oxide LEADseeker beads. The beads were allowed to settle for 3 hours before plates were read in the LEEDSeaker for 6 minutes. The measured signal ccould be converted to activity relative to an […] control (100%). IC50 values were calculated by using in-house data software and IC50 values were generated by nonlinear regression analysis. (Bristol-Myers Squibb Company, Wallingford, Conn.).
Consider `Cc1ncc(C)n2nc(C3CC3c3nc(-c4ccccc4)cn3C)nc12` (racemic) [5,8-Dimethyl-2-(2-(1-methyl-4-phenyl-1H-imidazol-2-yl)cyclopropyl)-[1,2,4]triazolo[1,5-a]pyrazine], for which the IC50 stood at 1.79 nM.

`Cc1cc(C)n2nc(C3CC3c3nc(-c4ccccc4)cn3C)nc2n1` (stereo not drawn) [5,7-Dimethyl-2-(2-(1-methyl-4-phenyl-1H-imidazol-2-yl)cyclopropyl)-[1,2,4]-triazolo[1,5-a]pyrimidine]: the IC50 turned out to be 14.5 nM.

In the case of `CCCn1cc(-c2ccccc2)nc1C1CC1c1nc2c(C)ncc(C)n2n1` (stereo not drawn) [5,8-dimethyl-2-(2-(4-phenyl-1-propyl-1H-imidazol-2-yl)cyclopropyl)-[1,2,4]triazolo[1,5-a]pyrazine], the 50% inhibitory concentration (IC50) came to 6.65 nM.

Staying with this assay, now noted: 3H-cAMP at Km 25 nM, read-out: Range (IC50).
With `Cc1ncc(C)n2nc(C3CC3c3nc(-c4ccccc4)cn3C)nc12` (single isomer, unassigned) [drawing 16, 5,8-dimethyl-2-(2-(1-methyl-4-phenyl-1H-imidazol-2-yl)cyclopropyl)-[1,2,4]triazolo[1,5-a]pyrazine], the IC50 was 0.8 to 5 nM.

Take `Cc1ncc(C)n2nc(C3CC3c3nc(-c4ccccc4)cn3C)nc12` (single isomer, unassigned) [drawing 17, 5,8-dimethyl-2-(2-(1-methyl-4-phenyl-1H-imidazol-2-yl)cyclopropyl)-[1,2,4]triazolo[1,5-a]pyrazine]: the concentration for half-maximal inhibition (IC50) was 10.1 to 40 nM.

On to `CCn1cc(-c2ccccc2)nc1C1CC1c1nc2c(C)ncc(C)n2n1` (stereo not drawn) [2-(2-(1-Ethyl-4-phenyl-1H-imidazol-2-yl)cyclopropyl)-5,8-dimethyl-[1,2,4]triazolo[1,5-a]pyrazine], for which the half-inhibitory concentration (IC50) is 5.1 to 10 nM.
